Here are results for twelve compounds from patent US12247031B2, “Cyclobutyl pyrazolopyrimidine PDE9 inhibitors” (Merck Sharp & Dohme LLC, priority 2018, dated 2025).

Structures are written as SMILES.

The assay has as its target Human PDE9 (PDE9A2) (Homo sapiens (Human), UniProt O76083). Briefly: PDE9 IMAP fluorescence polarization assay. Format: biochemical. As to conditions: human PDE9A2, FAM-cGMP substrate 50 nM, IMAP FP, apparent inhibition constant. The method, then:
The activity of the compounds in accordance with the present invention as PDE9 inhibitors may be readily determined without undue experimentation using a fluorescence polarization (FP) methodology that is well known in the art (Huang, W., et al., J. Biomol Screen. 2002, 7: 215).
In a typical experiment the PDE9 inhibitory activity of the compounds of the present invention was determined in accordance with the following experimental method.
Human PDE9 (PDE9A2, GenBank Accession No. NM_001001567), full length with N-terminal GST tag, was purchased from BPS Bioscience. The fluorescence polarization assay for cyclic nucleotide phosphodiesterases was performed using an IMAP® FP kit supplied by Molecular Devices, Sunnyvale, CA (product #R8139). IMAP® technology has been applied previously to phosphodiesterase assays (Huang, W., et al., J. Biomol Screen. 2002, 7: 215).
Fluorescence polarization (mP) was calculated from the parallel (S) and perpendicular (P) fluorescence of each sample well and the analogous values for the median control well, containing only substrate (So and Po), using the following equation: Polarization (mP)=1000*(S/So−P/Po)/(S/So+P/Po).
Dose-inhibition profiles for each compound were characterized by fitting the mP data to a four-parameter equation given below. The apparent inhibition constant (KI), the maximum inhibition at the low plateau relative to “100% Inhibition Control” (Imax; e.g. 1=>same as this control), the minimum inhibition at the high plateau relative to the “0% Inhibition Control” (Imin, e.g. 0=>same as the no drug control) and the Hill slope (nH) are determined by a non-linear least squares fitting of the mP values as a function of dose of the compound using an in-house software based on the procedures described by Mosser et al., JALA. 2003, 8: 54-63, using the following equation: […]
For orientation: Fluorescence polarisation rises when a labelled molecule tumbles more slowly, as on binding a larger partner.
In the case of `CC(C1CCOCC1)n1nc(C#N)c2c(=O)[nH]c(C3CCC3n3cc(C#N)cn3)nc21` (single isomer, unassigned) [Example 48, 6-(2-(4-cyano-1H-pyrazol-1-yl)cyclobutyl)-4-oxo-1-(1-(tetrahydro-2H-pyran-4-yl)ethyl)-4,5-dihydro-1H-pyrazolo[3,4-d]pyrimidine-3-carbonitrile], the Ki stood at 366 nM.
With `C[C@@H](c1ccc(C(F)(F)F)nc1)n1nc(C#N)c2c(=O)[nH]c(C3CCC3c3cc4n(n3)CCC4)nc21` (stereo partly drawn) [Example 12, 6-(2-(5,6-dihydro-4H-pyrrolo[1,2-b]pyrazol-2-yl)cyclobutyl)-4-oxo-1-((S)-1-(6-(trifluoromethyl)pyridin-3-yl)ethyl)-4,5-dihydro-1H-pyrazolo[3,4-d]pyrimidine-3-carbonitrile], the Ki is 608 nM.
With `C[C@@H](c1ccc(C(F)(F)F)nc1)n1nc(C#N)c2c(=O)[nH]c(C3CCC3c3cncnc3)nc21` (stereo partly drawn) [Example 22, 4-oxo-6-(2-(pyrimidin-5-yl)cyclobutyl)-1-((S)-1-(6-(trifluoromethyl)pyridin-3-yl)ethyl)-4,5-dihydro-1H-pyrazolo[3,4-d]pyrimidine-3-carbonitrile], the Ki is 608 nM.
For `C[C@@H](c1ccc(C(F)(F)F)nc1)n1nc(C#N)c2c(=O)[nH]c(C3CCC3c3cncnc3)nc21` (stereo partly drawn) [Example 23, 4-oxo-6-(2-(pyrimidin-5-yl)cyclobutyl)-1-((S)-1-(6-(trifluoromethyl)pyridin-3-yl)ethyl)-4,5-dihydro-1H-pyrazolo[3,4-d]pyrimidine-3-carbonitrile], the Ki came to 608 nM.
With `CC(c1ccc(C(F)(F)F)nc1)n1nc(C#N)c2c(=O)[nH]c(C3CCC3N3CCOCC3=O)nc21` (stereo not drawn) [Example 30, 4-oxo-6-(2-(3-oxomorpholino)cyclobutyl)-1-(1-(6-(trifluoromethyl)pyridin-3-yl)ethyl)-4,5-dihydro-1H-pyrazolo[3,4-d]pyrimidine-3-carbonitrile] the figure was 608 nM; with `C[C@@H](c1ccc(C(F)(F)F)nc1)n1nc(C#N)c2c(=O)[nH]c(C3CCC3n3cc(C(F)(F)F)cn3)nc21` (stereo partly drawn) [Example 31, 4-oxo-6-(2-(4-(trifluoromethyl)-1H-pyrazol-1-yl)cyclobutyl)-1-((S)-1-(6-(trifluoromethyl)pyridin-3-yl)ethyl)-4,5-dihydro-1H-pyrazolo[3,4-d]pyrimidine-3-carbonitrile], 0.399 nM; with `C[C@@H](c1ccc(C(F)(F)F)nc1)n1nc(C#N)c2c(=O)[nH]c(C3CCC3n3ccc(C(F)(F)F)n3)nc21` (stereo partly drawn) [Example 32, 4-oxo-6-(2-(3-(trifluoromethyl)-1H-pyrazol-1-yl)cyclobutyl)-1-((S)-1-(6-(trifluoromethyl)pyridin-3-yl)ethyl)-4,5-dihydro-1H-pyrazolo[3,4-d]pyrimidine-3-carbonitrile], 608 nM.
With `CC(C1CCOCC1)n1nc(C#N)c2c(=O)[nH]c(C3CCC3n3cccn3)nc21` (stereo not drawn) [Example 40, 6-(2-(1H-pyrazol-1-yl)cyclobutyl)-4-oxo-1-(1-(tetrahydro-2H-pyran-4-yl)ethyl)-4,5-dihydro-1H-pyrazolo[3,4-d]pyrimidine-3-carbonitrile] the figure was 225 nM.
As to `CC(C1CCOCC1)n1nc(C#N)c2c(=O)[nH]c(C3CCC3n3cc(C#N)cn3)nc21` (stereo not drawn) [Example 41, 6-(2-(4-cyano-1H-pyrazol-1-yl)cyclobutyl)-4-oxo-1-(1-(tetrahydro-2H-pyran-4-yl)ethyl)-4,5-dihydro-1H-pyrazolo[3,4-d]pyrimidine-3-carbonitrile], the Ki worked out at 608 nM.
For the compound `C[C@@H](c1ccc(C(F)(F)F)nc1)n1nc(C#N)c2c(=O)[nH]c(C3CCC3n3cc(C(F)(F)F)cn3)nc21` (stereo partly drawn) [Example 43, 4-oxo-6-(2-(4-(trifluoromethyl)-1H-pyrazol-1-yl)cyclobutyl)-1-((S)-1-(6-(trifluoromethyl)pyridin-3-yl)ethyl)-4,5-dihydro-1H-pyrazolo[3,4-d]pyrimidine-3-carbonitrile], the Ki was 4.75 nM.
For `CC(c1ccc(C(F)(F)F)nc1)n1nc(C#N)c2c(=O)[nH]c(C3CCC3n3cc(C(F)F)cn3)nc21` (stereo not drawn) [Example 45, 6-(2-(4-(difluoromethyl)-1H-pyrazol-1-yl)cyclobutyl)-4-oxo-1-(1-(6-(trifluoromethyl)pyridin-3-yl)ethyl)-4,5-dihydro-1H-pyrazolo[3,4-d]pyrimidine-3-carbonitrile], the Ki was 115 nM.
With `CC(C1CCOCC1)n1nc(C#N)c2c(=O)[nH]c(C3CCC3n3cccn3)nc21` (stereo not drawn) [Example 46, 6-(2-(1H-pyrazol-1-yl)cyclobutyl)-4-oxo-1-(1-(tetrahydro-2H-pyran-4-yl)ethyl)-4,5-dihydro-1H-pyrazolo[3,4-d]pyrimidine-3-carbonitrile] the figure was 608 nM.
